Reference: PubChem BioAssay AID328 (DTP/NCI, 2004)
Several values for one entry are separate records, joined by “and”; a condition that tells them apart may be missing. Equal entries are not always repeated. Toxic doses and inconclusive results are not listed. The calls were made as follows: active = survival T/C of 150% or more; inactive = T/C below 125% in these data.

Test system: BDF1 mice, P388 leukemia ip, median survival T/C
Test: NCI In Vivo Anticancer Drug Screen. Data for tumor model P388 Leukemia (intraperitoneal) in B6D2F1 (BDF1) mice
Settings: endpoint: median survival time, higher = longer survival
Summary of the method: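 Steps: implant the tumour, treat one group with compound and another with vehicle, record survival, then divide treated by control.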

[1] = dose: 50.0 mg/kg/injection, schedule: Q01DX009 (ip), vehicle: saline with Tween-80
[2] = dose: 100.0 mg/kg/injection, schedule: Q01DX009 (ip), vehicle: saline with Tween-80
[3] = dose: 200.0 mg/kg/injection, schedule: Q01DX009 (ip), vehicle: saline with Tween-80
[4] = dose: 50.0 mg/kg/injection, schedule: Q01DX009 (ip), vehicle: Klucel (hydroxypropylcellulose) (HPC)
[5] = dose: 100.0 mg/kg/injection, schedule: Q01DX009 (ip), vehicle: Klucel (hydroxypropylcellulose) (HPC)
[6] = dose: 200.0 mg/kg/injection, schedule: Q01DX009 (ip), vehicle: Klucel (hydroxypropylcellulose) (HPC)
[7] = dose: 6.25 mg/kg/injection, schedule: Q01DX009 (ip), vehicle: saline with Tween-80
[8] = dose: 50.0 mg/kg/injection, schedule: Q01DX009 (ip), vehicle: saline

Measured: T/C

NC(=O)c1cc([N+](=O)[O-])ccc1N
inactive: dose: 100.0 mg/kg/injection, schedule: Q04DX003 (ip), vehicle: saline sonified 115 % of control | dose: 200.0 mg/kg/injection, schedule: Q04DX003 (ip), vehicle: saline sonified 110 % of control | dose: 400.0 mg/kg/injection, schedule: Q04DX003 (ip), vehicle: saline sonified 120 % of control

O=C(O)Cc1c[nH]c2cccc(Cl)c12
inactive: [1] 93 % of control | [2] 98 % of control | [3] 100 % of control

O=[N+]([O-])c1cccc(N2CN(c3cccc([N+](=O)[O-])c3)CN(c3cccc([N+](=O)[O-])c3)C2)c1
inactive: [1] 116 % of control | [2] 106 % of control | [3] 100 % of control

CN=Cc1ccc([N+](=O)[O-])cc1
inactive: dose: 100.0 mg/kg/injection, schedule: Q01DX001 (ip), vehicle: Klucel (hydroxypropylcellulose) (HPC) 113 % of control | dose: 200.0 mg/kg/injection, schedule: Q01DX001 (ip), vehicle: Klucel (hydroxypropylcellulose) (HPC) 104 % of control

CCCCC(CCC)(CCN)CCCC
inactive: dose: 1.0 mg/kg/injection, schedule: Q01DX009 (ip), vehicle: Klucel (hydroxypropylcellulose) (HPC) 100 % of control | dose: 2.0 mg/kg/injection, schedule: Q01DX009 (ip), vehicle: Klucel (hydroxypropylcellulose) (HPC) 110 % of control | dose: 4.0 mg/kg/injection, schedule: Q01DX009 (ip), vehicle: Klucel (hydroxypropylcellulose) (HPC) 105 % of control | dose: 8.0 mg/kg/injection, schedule: Q01DX009 (ip), vehicle: Klucel (hydroxypropylcellulose) (HPC) 115 % of control

C=C(C)[C@@H]1CC[C@]2(C)CC[C@]3(C)[C@H](CC[C@@H]4[C@@]5(C)CC[C@H](O)C(C)(C)[C@@H]5CC[C@]43C)[C@@H]12
inactive: [4] 93 % of control | [5] 101 % of control | [6] 105 % of control | dose: 400.0 mg/kg/injection, schedule: Q01DX009 (ip), vehicle: Klucel (hydroxypropylcellulose) (HPC) 97 % of control

CC(C)(C)c1cc([N+](=O)[O-])cc([N+](=O)[O-])c1O
inactive: dose: 0.78 mg/kg/injection, schedule: Q01DX009 (ip), vehicle: saline with Tween-80 105 % of control | dose: 1.56 mg/kg/injection, schedule: Q01DX009 (ip), vehicle: saline with Tween-80 101 % of control | dose: 3.13 mg/kg/injection, schedule: Q01DX009 (ip), vehicle: saline with Tween-80 101 % of control | [7] 99 % of control

c1cncc(-c2ncnc3c2Cc2ccccc2-3)c1
inactive: dose: 75.0 mg/kg/injection, schedule: Q01DX009 (ip), vehicle: Klucel (hydroxypropylcellulose) (HPC) 100 % of control | dose: 150.0 mg/kg/injection, schedule: Q01DX009 (ip), vehicle: Klucel (hydroxypropylcellulose) (HPC) 113 % of control

O=c1[nH]nc(NCCCO)c2ccccc12
inactive: [1] 112 % of control | [2] 87 % of control | [3] 96 % of control

O=C(NC(CSC(c1ccccc1)(c1ccccc1)c1ccccc1)C(=O)O)OCc1ccccc1 (configuration not stated)
inactive: [8] 100 % of control and 110 % of control | dose: 100.0 mg/kg/injection, schedule: Q01DX009 (ip), vehicle: saline 122 % of control | dose: 100.0 mg/kg/injection, schedule: Q04DX003 (ip), vehicle: saline 100 % of control | dose: 200.0 mg/kg/injection, schedule: Q01DX009 (ip), vehicle: saline 118 % of control | dose: 200.0 mg/kg/injection, schedule: Q04DX003 (ip), vehicle: saline 104 % of control | dose: 400.0 mg/kg/injection, schedule: Q04DX003 (ip), vehicle: saline 100 % of control

COc1ccc(C(=S)N(C)NC(=O)CC(=O)NN(C)C(=S)c2ccc(OC)cc2)cc1
inactive: dose: 25.0 mg/kg/injection, schedule: Q01DX009 (ip), vehicle: Klucel (hydroxypropylcellulose) (HPC) 100 % of control | [4] 102 % of control | [5] 89 % of control | [6] 100 % of control

O=C(Nc1ccccc1)OCCBr
inactive: [1] 99 % of control | [2] 107 % of control | [3] 107 % of control

COc1cc(/C=C/C(=O)O)ccc1OC(C)=O
inactive: dose: 100.0 mg/kg/injection, schedule: Q01DX001 (ip), vehicle: saline 100 % of control | dose: 200.0 mg/kg/injection, schedule: Q01DX001 (ip), vehicle: saline 100 % of control | dose: 400.0 mg/kg/injection, schedule: Q01DX001 (ip), vehicle: saline 100 % of control

CS(=O)CC(O)(c1ccccc1)c1cccs1 (configuration not stated)
inactive: [1] 100 % of control | [2] 93 % of control | [3] 100 % of control

O=C(O)c1sc(C(=O)O)c(-c2ccccc2)c1-c1ccccc1
inactive: dose: 6.25 mg/kg/injection, schedule: Q01DX009 (ip), vehicle: saline 89 % of control and 101 % of control | dose: 12.5 mg/kg/injection, schedule: Q01DX009 (ip), vehicle: saline 101 % of control and 115 % of control | dose: 25.0 mg/kg/injection, schedule: Q01DX009 (ip), vehicle: saline 87 % of control and 95 % of control | [1] 100 % of control | [8] 89 % of control and 100 % of control | [2] 100 % of control | dose: 100.0 mg/kg/injection, schedule: Q04DX003 (ip), vehicle: saline with Tween-80 90 % of control | [3] 100 % of control | dose: 200.0 mg/kg/injection, schedule: Q04DX003 (ip), vehicle: saline with Tween-80 95 % of control | dose: 400.0 mg/kg/injection, schedule: Q04DX003 (ip), vehicle: saline with Tween-80 104 % of control

OC1c2ccccc2C=Cc2ccccc21
inactive: dose: 25.0 mg/kg/injection, schedule: Q01DX001 (ip), vehicle: saline sonified 104 % of control | dose: 50.0 mg/kg/injection, schedule: Q01DX001 (ip), vehicle: saline sonified 104 % of control | dose: 100.0 mg/kg/injection, schedule: Q01DX001 (ip), vehicle: saline sonified 100 % of control

S=C1Cc2[nH]c(=S)sc(=S)c2C(=S)N1
inactive: [7] 95 % of control | dose: 12.5 mg/kg/injection, schedule: Q01DX009 (ip), vehicle: saline with Tween-80 99 % of control | dose: 25.0 mg/kg/injection, schedule: Q01DX009 (ip), vehicle: saline with Tween-80 101 % of control

O=[N+]([O-])c1cc(-c2nc3ccccc3[nH]2)cc([N+](=O)[O-])c1
inactive: [1] 110 % of control | [2] 91 % of control

N#CC(Br)(Br)C(N)=O
inactive: dose: 2.5 mg/kg/injection, schedule: Q01DX009 (ip), vehicle: saline 115 % of control | dose: 5.0 mg/kg/injection, schedule: Q01DX009 (ip), vehicle: saline 102 % of control
